# From the supplement of paper PMC10307832
# Experiments:
# Test in all cases: relative viability (nuclei count vs DMSO), 5 days (fraction); higher = more cells survive
# AZ23 = compound: CC(C)Oc1cc(Nc2nc(N[C@@H](C)c3ccc(F)cn3)ncc2Cl)n[nH]1 [AZ23]
# In short: (§1)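 Lung cancer cell lines in 1536-well plates were exposed by pinning to five library-drug doses (not always all listed) √10 apart, following an overnight hold at 37 °C. MetaXpress counted Hoechst-stained nuclei from 4× images taken after 5 days without medium change. Viability is the median ratio of treated-well to vehicle-well nuclei across plates. Plates required control CV below 25% and at least one doubling.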
# HG-5-88-01 = compound: CC(C)S(=O)(=O)C1=CC=CC=C1NC2=NC(=NC(=C2Cl)N)NC3=C(C=C(C=C3)N4CCC(CC4)C(=O)N)OC [HG-5-88-01]
# In short: as §1
# Embelin = compound: CCCCCCCCCCCC1=C(O)C(=O)C=C(O)C1=O [Embelin]
# In short: as §1
# [1] = compound: C[C@@H]1CN(CC(=O)Nc2ccc3c(c2)Cc2cccc(-c4cc(=O)cc(N5CCOCC5)o4)c2S3)C[C@H](C)O1
# In short: as §1
# Vatalanib = compound: Clc1ccc(Nc2nnc(Cc3ccncc3)c3ccccc23)cc1 [Vatalanib]
# In short: as §1
Cell Line,relative viability (AZ23; 0.01 µM),relative viability (AZ23; 0.03162 µM),relative viability (AZ23; 0.3162 µM),relative viability (HG-5-88-01; 0.04 µM),relative viability (HG-5-88-01; 0.1265 µM),relative viability (HG-5-88-01; 0.4 µM),relative viability (HG-5-88-01; 1.265 µM),relative viability (HG-5-88-01; 4 µM),relative viability (Embelin; 0.08 µM),relative viability (Embelin; 0.8 µM),relative viability (Embelin; 2.53 µM),relative viability (Embelin; 8 µM),relative viability ([1]; 0.04 µM),relative viability ([1]; 0.1265 µM),relative viability ([1]; 0.4 µM),relative viability ([1]; 4 µM),relative viability (Vatalanib; 0.04 µM),relative viability (Vatalanib; 0.1265 µM),relative viability (Vatalanib; 0.4 µM),relative viability (Vatalanib; 1.265 µM),relative viability (Vatalanib; 4 µM)
HCC-44,0.999,1.06,1.01,1.04,0.972,0.914,0.927,0.567,0.886,1.01,1.01,0.869,0.934,0.976,0.919,0.923,0.951,0.905,0.943,0.963,0.97
NCI-H322M,0.695,0.974,1.07,0.811,0.872,0.876,0.494,0.718,0.987,0.996,1.03,0.915,0.823,0.947,0.961,0.827,0.938,0.946,0.936,0.904,0.917
Calu-6,–,1.09,1.01,1.04,0.965,0.946,0.948,0.854,1.01,1.09,1.07,1.07,1.04,0.951,1.03,0.74,1.06,0.958,1.06,0.949,0.976
SK-MES-1,0.745,1.08,1.08,0.983,0.962,0.966,0.924,1.05,1.02,1.07,1.13,0.954,1.09,1.05,0.923,0.8,1.03,0.913,1.09,0.971,0.893
NCI-H1793,1.1,1.07,1.07,–,0.942,0.985,0.668,0.792,0.918,1.08,1.06,0.431,1.01,0.866,1.05,0.581,0.902,0.879,1.07,0.839,0.774
NCI-H2347,1.12,1.16,0.997,1.04,1.02,1.07,0.94,1.01,0.987,1.09,1.09,1.03,1.1,1.08,1.08,0.981,1.09,1.01,1.02,0.961,0.938
EPLC-272H,0.674,1.11,0.745,0.985,0.894,0.984,0.753,0.0869,0.969,1.18,0.962,0.806,0.982,1,1.09,0.932,0.958,0.906,1.13,0.889,0.89
NCI-H661,1.05,1.04,0.967,0.992,1.01,1.1,1.01,1.01,1.01,1.06,1.02,1.04,0.864,0.97,0.951,0.916,0.975,0.971,0.983,0.906,0.988
COR-L23,1.03,1.11,1.15,1.05,1.08,0.964,0.952,0.867,1,1.18,1.06,1.16,1.03,1.07,1.06,0.877,0.971,0.977,1.13,1.01,0.994
NCI-H358,1.03,1.03,1.04,0.88,0.879,0.794,0.34,0.311,1.02,0.982,1.09,1.15,0.989,0.905,0.958,0.673,1.02,0.911,0.986,0.962,0.955
NCI-H2009,1.01,1.1,1.09,1.05,1.07,0.931,0.951,0.947,1.01,1.19,0.959,1,1.05,1.01,0.935,0.766,1.15,0.928,1.1,0.952,0.98
NCI-H1734,1.03,1.01,0.983,0.88,0.978,0.959,0.886,1.1,1.05,1.23,1.19,0.874,1.01,1.03,1.04,1.12,0.977,0.916,1.11,0.95,1.06
NCI-H460,1.03,1.08,1.07,1,0.953,0.954,0.99,1.03,1.01,1.03,1.04,0.997,0.934,0.963,1.06,0.938,1.03,0.924,1.01,0.947,0.984
SW 900,0.764,0.635,0.883,0.901,0.881,0.86,0.888,0.497,0.866,0.954,1.01,0.581,0.854,0.899,0.954,0.708,0.698,0.807,1.07,0.737,1.03
NCI-H1666,0.988,1.03,0.976,1.03,1.03,0.847,0.869,0.864,0.939,1.06,0.976,1.01,0.983,1.05,1.03,0.903,0.958,1.03,1.04,1,0.981
NCI-H2342,0.993,0.942,1.02,0.759,1.1,0.93,0.728,1.05,0.894,1.02,1.15,0.898,1.01,0.847,0.83,0.786,1,0.913,0.97,1.03,0.975

Cell Line,relative viability (AZ23; 0.01 µM),relative viability (AZ23; 0.03162 µM),relative viability (AZ23; 0.3162 µM),relative viability (HG-5-88-01; 0.04 µM),relative viability (HG-5-88-01; 0.1265 µM),relative viability (HG-5-88-01; 0.4 µM),relative viability (HG-5-88-01; 1.265 µM),relative viability (HG-5-88-01; 4 µM),relative viability (Embelin; 0.08 µM),relative viability (Embelin; 0.8 µM),relative viability (Embelin; 2.53 µM),relative viability (Embelin; 8 µM),relative viability ([1]; 0.04 µM),relative viability ([1]; 0.1265 µM),relative viability ([1]; 0.4 µM),relative viability ([1]; 4 µM),relative viability (Vatalanib; 0.04 µM),relative viability (Vatalanib; 0.1265 µM),relative viability (Vatalanib; 0.4 µM),relative viability (Vatalanib; 1.265 µM),relative viability (Vatalanib; 4 µM)
LC-2-ad,1.17,1.04,1.02,1.08,0.998,1.01,0.948,0.802,0.986,1.14,1.09,0.95,1.07,0.969,0.993,0.903,1.02,0.861,0.793,0.963,0.948
NCI-H520,0.915,1.11,0.92,0.994,1.05,0.959,1,1.02,1.07,1.1,1.11,0.931,0.797,1.05,0.901,0.94,1.07,0.92,1.08,0.881,0.841
NCI-H1703,–,0.879,0.943,0.778,0.983,0.663,0.941,0.954,0.99,1.79,0.899,0.838,1.26,0.763,0.797,0.668,1.12,0.754,1.14,0.527,0.363
LCLC-103H,1.04,0.993,1.08,1.04,1.04,0.86,0.96,0.657,0.999,1.06,1.04,0.8,1.01,0.903,0.793,0.926,1.05,0.932,1.01,0.993,0.977
NCI-H2023,–,1.11,1.13,1.04,0.958,0.795,0.725,0.633,1,0.926,1.07,0.736,1.04,0.937,0.773,0.681,1.02,0.88,1.12,0.893,0.933
NCI-H1944,0.971,1.13,1.05,0.988,1.01,0.913,0.972,0.902,1,1.07,1.06,0.961,–,0.958,1.03,0.952,0.987,0.848,1.1,1.01,0.907
HCC-15,1.21,1.02,1.07,1.07,1.02,0.901,1,0.743,1.01,1.09,1.01,0.964,1.09,0.898,0.97,0.903,1.07,1.04,1.06,0.983,1.08
NCI-H1975,1.13,1.09,0.971,0.951,0.972,0.835,0.844,0.454,1.03,0.959,0.94,1.04,0.932,0.901,0.935,0.738,0.972,0.919,1.01,0.787,0.841
HOP-62,1.13,1.11,1.12,1.03,1.06,0.92,1.02,1.02,1.02,1.07,1.1,0.984,0.978,0.991,0.973,0.988,0.954,0.957,1.07,0.949,1.01
IA-LM,0.91,1.12,1.07,0.959,0.984,0.85,0.715,0.704,0.932,0.981,1,0.689,0.911,0.938,0.946,0.574,0.977,0.898,0.955,0.909,0.898
NCI-H1563,1.06,1.02,0.967,1.02,0.932,0.974,0.811,1.19,0.946,1.17,0.978,0.978,0.947,0.901,0.941,0.935,1.04,0.889,1.03,0.918,0.937
NCI-H647,0.949,1.04,1.22,1,0.97,0.832,0.971,1.1,0.985,1.25,1.08,0.914,0.882,0.976,1,0.734,1,0.943,0.933,0.916,0.85
HCC-366,1.04,1.03,1.03,0.998,1.01,0.987,0.987,1.05,1.01,1.03,1.09,1.06,1.01,0.987,1.08,0.925,1.01,0.881,1.01,0.975,0.978
NCI-H2087,1.24,1.21,0.963,1.16,0.989,0.916,1.07,0.746,1.01,1.22,1.27,1.05,1.15,0.912,1.1,0.948,1.18,0.928,1.08,0.889,1.09
NCI-H3122,1.12,1.13,1.06,0.865,0.585,0.254,0.236,0.169,0.986,1.05,1.01,1.07,1.05,0.993,1.03,0.883,1.01,0.975,1.02,0.959,0.98
LXF-289,1.17,1.04,1.02,1.04,1.03,0.976,0.974,0.986,1.04,1.04,1.01,1.09,0.974,1.01,1.04,0.976,1.05,0.935,1.02,0.958,1
